# Reference: PubChem BioAssay (NCI)
#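 Following 48 hours of exposure in 96-well plates, responses at five concentrations were used to interpolate endpoints linearly. TGI: total growth inhibition.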
# Tests used:
# Experiment in all cases: NCI anticancer screen, dose series, 48 h
# [1] = system: UACC-257 melanoma
# [2] = system: MDA-N
# [3] = system: COLO 205 colon
# [4] = system: HL-60(TB) leukemia
# [5] = system: SN12C renal
# [6] = system: UO-31 renal
# [7] = system: EKVX NSCLC
# [8] = system: MDA-MB-231 breast
# [9] = system: SK-MEL-5 melanoma
# [10] = system: OVCAR-4 ovarian
# [11] = system: RPMI-8226 leukemia
# [12] = system: HS 578T breast
# [13] = system: NCI/ADR-RES ovarian
# [14] = system: NCI-H460 lung
# [15] = system: SF-295 CNS
# [16] = system: K-562 leukemia
# [17] = system: MCF7 breast
# [18] = system: SR leukemia
# [19] = system: ACHN renal
# [20] = system: U251 CNS
# [21] = system: SK-MEL-28 melanoma
# [22] = system: CAKI-1 renal
# [23] = system: PC-3 prostate
# [24] = system: TK-10 renal
# [25] = system: UACC-62 melanoma
# [26] = system: SF-539 CNS
# [27] = system: HT29 colon
# [28] = system: NCI-H522 lung
# [29] = system: A549 NSCLC
# [30] = system: DU-145 prostate
# [31] = system: IGROV1 ovarian
# [32] = system: HCT-116 colon
# [33] = system: OVCAR-8 ovarian
# [34] = system: T-47D breast
# [35] = system: M14 melanoma
# [36] = system: KM12 colon
# [37] = system: SW-620 colon
# [38] = system: HOP-92 NSCLC
# [39] = system: HOP-62 NSCLC
# [40] = system: MDA-MB-435
# [41] = system: OVCAR-3 ovarian
# [42] = system: SNB-19 CNS
# [43] = system: 786-0 renal
# [44] = system: OVCAR-5 ovarian
# [45] = system: SK-MEL-2 melanoma
# [46] = system: RXF 393 renal
# [47] = system: MOLT-4 leukemia
# [48] = system: SF-268 CNS
# [49] = system: CCRF-CEM leukemia
# [50] = system: NCI-H226 lung
# [51] = system: LOX IMVI melanoma
# [52] = system: SK-OV-3 ovarian
# [53] = system: BT-549 breast
# [54] = system: HCC-2998 colon
# [55] = system: HCT-15 colon
# [56] = system: MALME-3M melanoma
# [57] = system: NCI-H23 lung
# [58] = system: SNB-75 CNS
# [59] = system: A498 renal
compound,measurement,setting,value
CC(=O)OCCCC(NC(=O)OC(C)(C)C)C(=O)NC(CCCOC(C)=O)C(=O)NC(Cc1ccc([N+](=O)[O-])cc1)C(=O)NCC(=O)OCc1ccccc1 (centres undefined),TGI,[1],28.6 µM
same,TGI,[2],28.6 µM
same,TGI,[3],31.4 µM
same,TGI,[4],19.5 µM
same,TGI,[5],31.6 µM
same,TGI,[6],30 µM
same,TGI,[7],33.3 µM
same,TGI,[8],27.3 µM
same,TGI,[9],30.1 µM
same,TGI,[10],28.8 µM
same,TGI,[11],44.6 µM
same,TGI,[12],32.8 µM
same,TGI,[13],41.8 µM
same,TGI,[14],29.5 µM
same,TGI,[15],24.4 µM
same,TGI,[16],96 µM
same,TGI,[17],32.2 µM
same,TGI,[18],44.6 µM
same,TGI,[19],31.5 µM
same,TGI,[20],32.8 µM
same,TGI,[21],31.9 µM
same,TGI,[22],34.5 µM
same,TGI,[23],30.9 µM
same,TGI,[24],43.3 µM
same,TGI,[25],29 µM
same,TGI,[26],28.9 µM
same,TGI,[27],31.9 µM
same,TGI,[28],32.3 µM
same,TGI,[29],38.8 µM
same,TGI,[30],32.7 µM
same,TGI,[31],34 µM
same,TGI,[32],32.4 µM
same,TGI,[33],31 µM
same,TGI,[34],33.5 µM
same,TGI,[35],25.6 µM
same,TGI,[36],29 µM
same,TGI,[37],31.1 µM
same,TGI,[38],42.1 µM
same,TGI,[39],34.8 µM
same,TGI,[40],31.1 µM
same,TGI,[41],30.1 µM
same,TGI,[42],32.9 µM
same,TGI,[43],31.9 µM
same,TGI,[44],31.4 µM
same,TGI,[45],29.1 µM
same,TGI,[46],31.1 µM
same,TGI,[47],> 100 µM
same,TGI,[48],35.6 µM
same,TGI,[49],> 100 µM
same,TGI,[50],31.3 µM
same,TGI,[51],25.9 µM
same,TGI,[52],57.6 µM
same,TGI,[53],32.6 µM
same,TGI,[54],33.4 µM
same,TGI,[55],30.2 µM
same,TGI,[56],34.4 µM
same,TGI,[57],27.3 µM
COc1ccc([C@H]2CC(=O)C[C@H](c3ccc(OC)cc3)C23C(=O)c2ccccc2C3=O)cc1,TGI,[1],7.74 µM
same,TGI,[2],5.35 µM
same,TGI,[3],8.32 µM
same,TGI,[5],> 100 µM
same,TGI,[6],> 100 µM
same,TGI,[7],> 100 µM
same,TGI,[8],> 100 µM
same,TGI,[58],8.63 µM
same,TGI,[9],17.4 µM
same,TGI,[10],> 100 µM
same,TGI,[11],> 100 µM
same,TGI,[12],87.8 µM
same,TGI,[13],7.69 µM
same,TGI,[14],> 100 µM
same,TGI,[15],> 100 µM
same,TGI,[16],> 100 µM
same,TGI,[59],> 100 µM
same,TGI,[17],> 100 µM
same,TGI,[18],42.2 µM
same,TGI,[19],> 100 µM
same,TGI,[20],> 100 µM
same,TGI,[21],> 100 µM
same,TGI,[22],> 100 µM
same,TGI,[23],> 100 µM
same,TGI,[24],> 100 µM
same,TGI,[25],> 100 µM
same,TGI,[26],53.3 µM
same,TGI,[27],> 100 µM
same,TGI,[28],18.6 µM
same,TGI,[29],> 100 µM
same,TGI,[30],> 100 µM
same,TGI,[31],> 100 µM
same,TGI,[32],> 100 µM
same,TGI,[33],> 100 µM
same,TGI,[34],> 100 µM
same,TGI,[35],> 100 µM
same,TGI,[36],> 100 µM
same,TGI,[37],> 100 µM
same,TGI,[38],> 100 µM
same,TGI,[39],> 100 µM
same,TGI,[40],5.95 µM
same,TGI,[42],> 100 µM
same,TGI,[43],> 100 µM
same,TGI,[44],> 100 µM
same,TGI,[45],17.5 µM
same,TGI,[46],16 µM
same,TGI,[47],> 100 µM
same,TGI,[48],> 100 µM
same,TGI,[49],> 100 µM
same,TGI,[50],> 100 µM
same,TGI,[51],> 100 µM
same,TGI,[52],> 100 µM
same,TGI,[53],> 100 µM
same,TGI,[54],32.6 µM
same,TGI,[55],> 100 µM
same,TGI,[56],> 100 µM
same,TGI,[57],> 100 µM
